Measurements as given in the OPERA property sets (Mansouri et al. 2018).

Point of comparison: C#CC1(O)C(F)CC2C3CCc4cc(O)ccc4C3C(CC)CC21C (stereo not given), logP 4.12. Against it:
- CC/C=C\C/C=C\C/C=C\CCCCCCCC(=O)O — higher, 6.46
- CCOC(=O)CC[C@H](NC(=O)c1ccc(N(C)Cc2cnc3nc(N)nc(N)c3n2)cc1)C(=O)OCC — lower, 0.98
- CCNC(C)Cc1cccc(C(F)(F)F)c1 (stereo not given) — lower, 3.36
- CC(=O)OCC1=C(C(=O)OCOC(=O)C(C)(C)C)N2C(=O)C(NC(=O)Cc3cccs3)C2SC1 (stereo not given) — lower, 1.57
- CC(=O)OCCN1C(=O)C(OC(C)=O)N=C(c2ccccc2)c2cc(Cl)ccc21 (stereo not given) — lower, 2.74
- O=c1[nH]c2ccccc2cc1-c1ccccc1 — lower, 2.99
- CCOP(=O)(Cc1ccc(-c2nc3ccccc3s2)cc1)OCC — lower, 3.5
- O=CC1=CC=C2C(C(=O)O)CCN2c2cc(Br)ccc21 (stereo not given) — lower, 3.6
- COc1cc2nc(N3CCN(C(=O)C(C)OC)CC3)nc(N)c2cc1OC (stereo not given) — lower, 1.14
- C#C[C@]1(O)CC[C@H]2[C@@H]3CCc4cc(O)ccc4[C@H]3[C@@H](OC)C[C@@]21C — lower, 3.01
- COc1ccc(COc2ccccc2C(N)=O)cc1 — lower, 1.63
- COC(=O)C1C(C=C2CCSC2=O)C1(C)C (stereo not given) — lower, 2.33
- OCc1ccccc1C(c1ccc(O)cc1)c1ccc(O)cc1 — lower, 3.27
- CCOP(=O)(NC)ON=C(C#N)c1ccc(Cl)cc1 (stereo not given) — lower, 2.5
- CCC(C)CC — lower, 3.6
- NC(=O)c1cc(Cl)ccc1NCCO — lower, 1.26
- CN(C)c1nc(N(C)C)nc(N(C)O)n1 — lower, 1.61
- OC(Cn1ccnc1)(c1ccc(F)cc1)c1ccc(-c2ccccc2)cc1 (stereo not given) — within 0.2 log units, 4.23
- Brc1cc2ccccc2nn1 — lower, 1.72
- COc1ncnc(NS(=O)(=O)c2ccc(N)cc2)c1OC(C)C — lower, 1.03
- c1ccc2cc3cc4ccccc4cc3cc2c1 — higher, 5.76
- CCNCC(=O)Nc1c(C)cccc1C — lower, 1.32
- CCCCCCCCCCCCCc1cccc(O)c1 — higher, 8.84
- CCNC(=O)c1cc(Cl)cc(C)c1O — lower, 3.55
- C[C@@H]1CC2=CC(=O)CC[C@@H]2[C@H]2CC[C@@]3(C)[C@@H](CC[C@]3(C)O)[C@@H]21 — lower, 3.19
- C1CC2OC2CC1C1CO1 (stereo not given) — lower, 0.44
- CC(C)Nc1nc(Cl)nc(NC2CC2)n1 — lower, 3.06
- CCCCCCC(C)(C)c1cc(O)c2c(c1)OC(C)(C)C1CC=C(C)CC21 (stereo not given) — higher, 9.96
- CCOC1OC(CO)C(O)C(O)C1O (stereo not given) — lower, -2.28
- NCCc1cnc[nH]1 — lower, -0.7
- COC(=O)/C=C/Oc1ccccc1 — lower, 2.68
- O=Cc1cccc(Cl)c1 — lower, 2.26
- O=[N+]([O-])c1nccn1CCN1CCOCC1 — lower, -0.1
- CCN1CC(C(O)C(CC2CCCCC2)NC(=O)C(Cc2c[nH]cn2)NC(=O)C(Cc2ccc(OC)cc2)NC(=O)N2CC(OCOCCOC)C(OCOCCOC)C2)OC1=O (stereo not given) — lower, 1.67
- C=Cc1ccc(C(=O)O)cc1 — lower, 2.18
- COc1cc(C(=O)OC2N=C(c3ccccc3)c3cc(Cl)ccc3NC2=O)cc(OC)c1OC (stereo not given) — lower, 3.75
- CCCCCC=CCC=CCCCCCCCC(=O)O — higher, 7.05
- O=Nc1ccc(O)c(=O)cc1 — lower, 0.83
- COc1cccc2c1C(=O)c1c(O)c3c(c(O)c1C2=O)CC(O)(C(C)=O)CC3OC1CC(N2CCOCC2C#N)C(O)C(C)O1 (stereo not given) — lower, 2.59
- CCCCOC(=O)c1cc(=O)[nH]c(=O)[nH]1 — lower, 1.06
- OCc1cc(Br)ccc1O — lower, 1.72
- CC(C)NCC(O)c1ccc2ccccc2c1 (stereo not given) — lower, 3
- O=C(NCCNCC(O)COc1ccc(-c2ncc[nH]2)cc1)Nc1ccccc1 (stereo not given) — lower, 1.19
- COc1cc(Br)c(Cc2cnc(N)nc2N)cc1OC — lower, 1.64
- COc1ccc(C2C(=O)c3ccccc3C2=O)cc1 — lower, 2.88
- CN(C)c1ccc(C(O)(Cn2ccnc2)c2ccc(-c3ccncc3)cc2)cc1 (stereo not given) — lower, 3.29
- CC(=O)O[C@]1(C(=O)CO)CC[C@H]2[C@@H]3CCC4=CC(=O)CC[C@]4(C)[C@H]3[C@@H](O)C[C@@]21C — lower, 2.3
- O=C1CCc2ccccc2N1 — lower, 1.34
- CC(C)c1ccc(S(N)(=O)=O)cc1 — lower, 1.84
- CCOc1ccc(Cc2cnc(N)nc2N)cc1OC — lower, 1.34
- CCCCNC(=O)n1cc(F)c(=O)[nH]c1=O — lower, 1.44
- CCOC(=O)CNC(=O)CNC(=O)CNC(=O)CCCCSc1ncnc2nc[nH]c12 — lower, 0.21
- CCN1CC(C(O)C(CC2CCCCC2)NC(=O)C(Cc2cnc[nH]2)NC(=O)C(Cc2ccc(OC)cc2)NC(=O)N2CC(OCOC)C(OCOC)C2)OC1=O (stereo not given) — lower, 2.06
- CCC1(CC)C(=O)N=C(OC(C)C)NC1=O — lower, 1.44
- CC(CC(=O)O)CC(=O)c1ccc(-c2ccccc2)cc1 (stereo not given) — lower, 3.82
- Cc1cc(Br)cc(C(N)=O)c1O — lower, 2.76
- COc1ccc(CCNCC(O)COc2ccc(COCc3ncc[nH]3)cc2)cc1OC (stereo not given) — lower, 1.29
- Cc1ccc(N(C)C)cc1 — lower, 2.81
- CCN(CC)C(=O)c1cccc(C)c1 — lower, 2.18
- c1ccc(-c2ncn[nH]2)cc1 — lower, 1.54
- O=C(NC12CC3CC(CC(C3)C1)C2)C(O)c1ccccc1 (stereo not given) — lower, 3.09
- O=[N+]([O-])c1cnc(N=C2NCCO2)s1 — lower, 0.57
- O=NN1CC=CCC1 — lower, 1.18
- CC1CCCc2nccc(=O)n21 (stereo not given) — lower, 0.3
- N#CSO — lower, 0.32
- CC(C)c1cc(C(C)C)cc(C2C(=O)c3ccccc3C2=O)c1 — higher, 5.96
- CCCCCCC(C)(C)c1cc(O)c2c(c1)OC(C)(C)[C@@H]1CC=C(CO)C[C@@H]21 — higher, 7.44
- O=C(CBr)c1ccccc1 — lower, 2.19
- CCCCNC(=O)NCCNCC(O)COc1ccc(-c2ncc(C)[nH]2)cc1 (stereo not given) — lower, 1.24
- c1ccc2c(c1)Cc1c-2ccc2ccccc12 — higher, 5.4
- O=C(O)C=Cc1ccc2c(c1)OCO2 — lower, 2.59
- CCNc1nc(Cl)nc(NC2CC2)n1 — lower, 2.17
- CC1(C)C(C=C2CCSC2=O)C1C(=O)OCc1ccccc1 (stereo not given) — within 0.2 log units, 4.02
- O=[N+]([O-])c1cnc(C=Cc2ccc3c(c2)OCO3)n1CCO — lower, 2.03
- COc1ccc(C(O)(Cn2ccnc2)c2ccc(Br)cc2)cc1 (stereo not given) — within 0.2 log units, 4.02
- Cc1cnc2n(c1=O)CCCC2 — lower, 0.12
- O=C(CN1CCOCC1)NCc1ccccc1 — lower, 0.67
- CCN(CC)CCOC(=O)/C=C/c1ccccc1 — lower, 3.61
- Clc1ccc(Br)cc1NC1=NCCN1 — lower, 2.05
- COc1c(Br)cc(Br)cc1Br — higher, 4.48
- C=C(C)C(=O)OCC(C)(O)COc1cccc2ccccc12 (stereo not given) — lower, 3.77
- Clc1ccc(Cl)c(-c2ccccc2)c1 — higher, 5.1
- CC(=O)c1ccc(S(=O)(=O)NC(=O)NC2CCCCC2)cc1 — lower, 2.44
- CCCCCCC(C)(C)c1ccc(C2CCCC(O)C2)c(O)c1 (stereo not given) — higher, 6.68
- Cc1cc2ccccc2o1 — lower, 3.22
- C=C1C(=O)OC2CC3(C)CCCC(=C)C3CC12 (stereo not given) — lower, 3.42
- COC(=O)c1ccc(N)cc1 — lower, 1.37
- OCC1c2ccccc2-c2ccccc21 — lower, 2.89
- NC(=O)c1ccccc1OCc1ccc([N+](=O)[O-])cc1 — lower, 1.73
- CCCn1c(=O)[nH]c(=O)c2[nH]cnc21 — lower, 0.33
- CC1=CC(=O)C(C(C)C)=CC1=O — lower, 2.2
- CCC1OC(=O)C(C)C(OC2CC(C)(OC)C(OC=O)C(C)O2)C(C)C(OC2OC(C)CC(N(C)C)C2O)C(C)(O)CC(C)C(=O)C(C)C(O)C1C (stereo not given) — lower, 3.05
- COCC(O)Cn1cc(Br)nc1[N+](=O)[O-] (stereo not given) — lower, 0.46
- COc1ccc(Cc2cnc(N)nc2N)cc1C(C)C — lower, 2.79
- C=C(C)C(=O)OCC(F)(F)F — lower, 1.56
- CCN1CC(C(O)C(CC2CCCCC2)NC(=O)C(Cc2cnc[nH]2)NC(=O)C(Cc2ccc(OC)cc2)NC(=O)N(C)CC(O)CO)OC1=O (stereo not given) — lower, 1.42
- Nc1ncnc2c1ncn2C1C=CC(CO)O1 (stereo not given) — lower, -0.5
- C=CC(=O)OCCOCCOCCOC(=O)C=C — lower, 0.96
- Cn1nnnc1SCC1=C(C(=O)OCOC(=O)C(C)(C)C)N2C(=O)C(NC(=O)C(O)c3ccccc3)C2SC1 (stereo not given) — lower, 0.85
- CC(=O)OC1CC2C(CCC3CC(OC4CC(O)C(OC5CC(O)C(OC6CC(O)C(O)C(C)O6)C(C)O5)C(C)O4)CCC32C)C2(O)CCC(C3=CC(=O)OC3)C12C (stereo not given) — lower, 2.29
- CCN1CC(C(O)C(CC2CCCCC2)NC(=O)C(Cc2cnc[nH]2)NC(=O)C(Cc2ccc(OC)cc2)NC(=O)N2CC(O)C(O)C2)OC1=O (stereo not given) — lower, 1.22
- CCCCCCCCc1ccccc1 — higher, 6.3
- OC(Cn1ccnc1)(c1ccc(Cl)cc1)c1ccc(-c2ccncc2)cc1 (stereo not given) — lower, 3.27
- Brc1cccc(N=C2NCCN2)c1Br — lower, 2.16
- CCOC(=O)c1cnc(-c2ccc(OCC(O)CNCCc3ccc(OC)c(OC)c3)cc2)[nH]1 (stereo not given) — lower, 2.3
- c1cc2cccc3c4cccc5cccc(c(c1)c23)c54 — higher, 6.25
- COC(=O)C=COc1ccccc1Cl — lower, 3.02
- CCCCCc1cc(OC)c2c(c1)OC(C)(C)C1CC=C(C)CC21 (stereo not given) — higher, 8.06
- O=c1nc(-c2ccccc2)c2ccccc2[nH]1 — lower, 1.91
- O=c1c2ccccc2nc2n1CCC2 — lower, 1.07
- CC1=C(C(=O)Nc2ccccc2-c2ccccc2)SCCO1 — lower, 2.54
- CCC1(c2ccccc2)C(=O)N=C(OC(C)C)NC1=O (stereo not given) — lower, 1.79
- Oc1ccc2cc(O)ccc2c1 — lower, 1.9
- Cc1cccc(C)c1NC(=O)CN — lower, 0.41
- CCOC(=O)Cn1nnc2ccccc21 — lower, 1.3
- CC(=O)C(C)CN1CCCCC1 (stereo not given) — lower, 1.28
- CCCCc1ccc(N2C(N)=NC(N)=NC2(C)C)cc1 — lower, 2.66
- Nc1nc2c(ncn2C2OC(CO)C(O)C2O)c(=O)[nH]1 (stereo not given) — lower, -1.9
- C=CCOc1ccc(C(=O)c2ccc3n2CCC3C(=O)O)cc1 (stereo not given) — lower, 3.48
- CCCC(=O)OCC(=O)C1(O)CCC2C3CCC4=CC(=O)CCC4(C)C3C(O)CC21C (stereo not given) — lower, 2.91
- COc1cccc(NC(=O)CN2CCCCC2)c1 — lower, 2.71
- COc1cc(S(C)=O)ccc1-c1nc2ncccc2[nH]1 (stereo not given) — lower, 1.18
- CCc1cccc(C2C(=O)c3ccccc3C2=O)c1 — lower, 3.92
- O=C(COc1ccc(OCCNCC(O)COc2ccccc2)cc1)NCc1ccccc1 (stereo not given) — lower, 3.2
- Cc1nc(Cl)c(C#N)cc1-c1ccccc1 — lower, 3.24
- O=C1CN=C(c2ccccc2)c2cc(Br)ccc2N1 — lower, 3.11
- COc1ccc(N2Cn3c(nc4ccccc4c3=O)C2C)cc1 (stereo not given) — lower, 1.73
- CC(C)C(=O)O — lower, 0.94
- NC1CC1c1ccccc1 (stereo not given) — lower, 1.58
- Cc1ccc(S(=O)(=O)NC(=O)NN2CCCCC2)cc1 — lower, 1.34
- CNC(=O)COc1cccc(OCC(O)CNC(C)C)c1 (stereo not given) — lower, 0.35
- COC1CC2(C)C(O)CCC2C2CCc3cc(O)ccc3C12 (stereo not given) — lower, 2.72
- COc1ccc(CCNCC(O)COc2ccc(-c3ncc(C)[nH]3)cc2OC)cc1OC (stereo not given) — lower, 1.89
- [O-][n+]1ccc(NO)c2ccccc21 — lower, 0
